Consider 13 compounds from PMC8812549 (Journal of medicinal chemistry, 2021).

The first series in a line: Parallel artificial membrane permeability assay. In kind it is in vitro ADME. The conditions noted are these: passive permeability, pH 7.4.
Turning to `CC(=O)N1CCC(N(Cc2ccc(Br)c(Cl)c2)C2CC(c3ccc(C)cc3)C2)CC1` (stereo not drawn) [compound 67], the PAMPA was 1909 1e^−6 cm/s.

`Cc1ccc(C2CC(N(Cc3ccc(Br)c(Cl)c3)C3CCOCC3)C2)cc1` (stereo not drawn) [compound 66]: the PAMPA is <6.4 1e^−6 cm/s. The same measure, in the same setting: in the case of `Cc1ccc(C2CC(N(Cc3ccc(Br)c(Cl)c3)C3CCNCC3)C2)cc1` (stereo not drawn) [compound 56, N-(4-Bromo-3-chlorobenzyl)-N-(3-(p-tolyl)cyclobutyl)piperidin-4-amine] it was 806 1e^−6 cm/s; in that of `Fc1ccc(C2CC(N(Cc3ccc(Br)c(Cl)c3)C3CCNCC3)C2)cc1` (stereo not drawn) [compound 59], 398 1e^−6 cm/s; in that of `Cc1cccc(C2CC(N(Cc3ccc(Br)c(Cl)c3)C3CCNCC3)C2)c1` (stereo not drawn) [compound 60], 265 1e^−6 cm/s. In the case of `Cc1ccc(C2CC(N(Cc3ccc(Br)c(Cl)c3)C3CCCNCC3)C2)cc1` (stereo not drawn) [compound 72], the PAMPA is 665.84 1e^−6 cm/s.

For `Cc1ccc(C2CC(N(Cc3ccc(Br)c(Cl)c3)C3CC4CNC3C4)C2)cc1` (stereo not drawn) [compound 74], the PAMPA is on record as 122.99 1e^−6 cm/s. On the same count and under the same terms, in the case of `Cc1ccc(C2CC(N(Cc3ccc(Br)c(Cl)c3)C3CCC(N)CC3)C2)cc1` (stereo not drawn) [compound 70] it was 818.04 1e^−6 cm/s; in that of `Clc1cc(CN(C2CCNCC2)C2CC(c3cccc(Br)c3)C2)ccc1Br` (stereo not drawn) [compound 62], 14 1e^−6 cm/s; in that of `Clc1cc(CN(C2CCNCC2)C2CC(c3ccc(Br)cc3)C2)ccc1Br` (stereo not drawn) [compound 58, N-(4-Bromo-3-chlorobenzyl)-N-(3-(4-bromophenyl)cyclobutyl)piperidin-4-amine], 32 1e^−6 cm/s. Still for that read-out and setting: in the case of `Cc1ccc(C2CC(N(Cc3ccc(Br)c(Cl)c3)C3CCN(C(C)C)CC3)C2)cc1` (stereo not drawn) [compound 69] it was <23.1 1e^−6 cm/s; in that of `Cc1ccc(C2CC(N(Cc3ccc(Br)c(Cl)c3)C3CCN(C)CC3)C2)cc1` (stereo not drawn) [compound 68], 274.27 1e^−6 cm/s.

Assay in a further series: not given
The conditions noted are these: mice, 1 mg/kg, di-HCl salt; liver.
Turning to `Cc1ccc([C@H]2C[C@H](N(Cc3ccc(Br)c(Cl)c3)C3CCNCC3)C2)cc1` [77b], the Cmax liver came to 4.13 µM.

The same series, now with this note: mice, 10 mg/kg IP, 24 hours; posture, body temperature, respiratory rate.
On to `Clc1cc(CN(C2CCNCC2)C2CC(c3ccc(Br)cc3)C2)ccc1Br` (stereo not drawn) [compound 58, N-(4-Bromo-3-chlorobenzyl)-N-(3-(4-bromophenyl)cyclobutyl)piperidin-4-amine], for which the “unusual behavior or acute toxicity” value was “No unusual behavior or acute toxicity”.

Still in this series, the particulars now being: mice, 10 mg/kg IP, oxalate salt; liver.
In the case of `Clc1cc(CN(C2CCNCC2)C2CC(c3ccc(Br)cc3)C2)ccc1Br` (stereo not drawn) [compound 58, N-(4-Bromo-3-chlorobenzyl)-N-(3-(4-bromophenyl)cyclobutyl)piperidin-4-amine], the Cmax liver was found to be 112 µM.
